This note sets out measurements from paper PMC11284088, “Synthesis and biochemical characterization of naphthoquinone derivatives targeting bacterial histidine kinases” (The Journal of Antibiotics, 2024).

The structures appear in SMILES notation. pIC50: −log10 of the molar value.

For one test, the target named is T1, CpxA (Escherichia coli, UniProt P0AE82).
T1 construct: cytoplasmic regions of PhoQ (261-486) and CpxA (188-457); His6 (C); made in house; host or cells: E. coli BL21(DE3)
Kind of test: Inhibition of CpxA autophosphorylation. The class given is biochemical, Escherichia coli K12. The following applies: CpxA; 1 µM HK, 40 µM ATP; read-out: IC50. The procedure: (§1) The total reaction volume was 40 µl, and the incubation lasted for 30 min at 25 °C. To terminate the reaction, 40 µl of 2 × SDS-PAGE sample buffer was added, followed by a 10-min incubation at 37 °C. Subsequently, SDS-PAGE (10% acrylamide) was performed, and the samples were subjected to Western blotting using a PVDF membrane (Bio-Rad 1620177). The primary antibody used was anti-N3-phosphohistidine antibody (clone SC56-2) (EDM Millipore Corp), and the secondary antibody was goat anti-rabbit IgG-HRP (Abcam). A 2% bovine serum albumin (Sigma-Aldrich) solution served as the blocking reagent. Signals originating from phosphorylated HKs were detected using the HRP substrate (Immobilon Western Chemiluminescent HRP substrate, Millipore) and the Multi Imager II Multi Box (Bio Tools). Signal intensities were quantified with Image Analysis Software CS Analyzer 4 (ATTO). IC50 values (50% inhibitory concentrations) were determined using Prism 7 software (GraphPad).
In the assessment of naphthoquinone derivatives, the initial screening for inhibitory activity against WalK autophosphorylation was conducted at 50 or 100 µg ml^−1. Compounds displaying inhibitory activity were further examined to ascertain their IC50 values against WalK. For the chosen compounds, inhibition against EvgS, EnvZ, PhoQ, and CpxA HKs was also assessed. […]

Another test addresses T2, PhoQ (Escherichia coli, UniProt P23837).
T2 construct: cytoplasmic regions of PhoQ (261-486) and CpxA (188-457); His6 (C); made in house; host or cells: E. coli BL21(DE3)
Kind of test: Inhibition of PhoQ autophosphorylation. The following applies: PhoQ; 1 µM HK, 40 µM ATP, buffer pH 7.5; read-out: IC50. The test is classed as biochemical, Escherichia coli K12. The procedure:
as §1, with “Autophosphorylation of WalK was conducted at 0.5 or 1 µM in a reaction mixture comprising 50 mM Tris-HCl (pH 8.5), 100 mM KCl, 5 mM MgCl2, 100 mM NH4Cl, 5% DMSO, and 40 µM ATP. The total” for “The total”
In the assessment of naphthoquinone derivatives, the initial screening for inhibitory activity against WalK autophosphorylation was conducted at 50 or 100 µg ml^−1. Compounds displaying inhibitory activity were further examined to ascertain their IC50 values against WalK. For the chosen compounds, inhibition against EvgS, EnvZ, PhoQ, and CpxA HKs was also assessed. These reactions involved the use of 1 µM HK, 40 µM ATP, and a 30 min incubation at 25 °C.

T1 sequence (P0AE82 188-457): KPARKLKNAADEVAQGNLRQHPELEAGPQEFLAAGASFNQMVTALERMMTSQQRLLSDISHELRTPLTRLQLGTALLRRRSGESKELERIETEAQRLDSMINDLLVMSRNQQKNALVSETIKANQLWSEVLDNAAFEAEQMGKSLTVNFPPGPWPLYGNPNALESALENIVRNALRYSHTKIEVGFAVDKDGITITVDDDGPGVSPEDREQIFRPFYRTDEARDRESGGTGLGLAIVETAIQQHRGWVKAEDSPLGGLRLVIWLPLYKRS
T2 sequence (P23837 261-486): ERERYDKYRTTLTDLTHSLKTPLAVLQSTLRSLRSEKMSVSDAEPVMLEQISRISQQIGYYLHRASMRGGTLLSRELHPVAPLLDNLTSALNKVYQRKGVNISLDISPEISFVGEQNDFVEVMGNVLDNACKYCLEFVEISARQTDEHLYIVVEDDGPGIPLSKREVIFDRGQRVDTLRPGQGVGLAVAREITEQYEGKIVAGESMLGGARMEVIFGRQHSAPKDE

Consider `Cc1noc2c1C(=O)c1c(O)ccc(O)c1C2=O` [3b, 5,8-dihydroxy-3-methylnaphtho[2,3-d]isoxazole-4,9-dione], for which the results for the negative logarithm of the IC50 (pIC50) on CpxA and at PhoQ were 3.98 and 4.02, respectively.

For `O=C1C(Cl)=C(Nc2ccc(Cl)c(O)c2)C(=O)c2c(O)ccc(O)c21` [2h, 2-chloro-3-((4-chloro-3-hydroxyphenyl)amino)-5,8-dihydroxynaphthalene-1,4-dione], the figures for the pIC50 at CpxA and at PhoQ were 4.71 and 4.37, respectively.

In the case of `CC(C)(C)OC(=O)Nc1cccc(NC2=C(Cl)C(=O)c3c(O)ccc(O)c3C2=O)c1` [2l, tert-butyl (3-((3-chloro-5,8-dihydroxy-1,4-dioxo-1,4-dihydronaphthalen-2-yl)amino)phenyl)carbamate], the negative logarithm of the IC50 (pIC50) at CpxA was 4.49; on PhoQ, 3.88.
